Common to all, as to type: functional, organism-based
For test [1], the system named is SARS-CoV-2. The test is described as follows: Antiviral activity against activity SARS-CoV-2 infected in human A549-ACE2 cells assessed as inhibition of viral replication pretreated with cells for 1 hrs followed by viral infected for 2 hrs and replacement with fresh medium containing compounds and measured 48 hrs post infection. As to conditions: Severe acute respiratory syndrome coronavirus 2, A549-ACE2.

The test system of test [2] is SARS-CoV-2. As to conditions: Severe acute respiratory syndrome coronavirus 2; MA10; dose 10.0 mg/kg, route ip, time 36.0 hrs.
Test [3] relates to Mus musculus. As to conditions: CD-1, dose 10.0 mg/kg, route ip, time 36.0 hrs.
For test [4], the system named is Mus musculus. The conditions noted are these: CD-1, dose 10.0 mg/kg, route ip, time 36.0 hrs. The source holds these as a separate data set.

Each structure is given as a SMILES string. Active and inactive are the calls of the source. The calls are words filed in the database; no cut-off is given here.

As to `CCN(CCN)c1ccc(Nc2cc(NC3CC3)n3ncc(C#N)c3n2)cc1-n1cnnc1`, the IC50 with SARS-CoV-2 [1] worked out at 390 nM. Moreover, the outcome in the test on SARS-CoV-2 [2] was inactive. Also, the inhibition result in the test on Mus musculus [3] and with Mus musculus [4] was “inactive” in each case.

Source of the values: ChEMBL document CHEMBL5500423, “More than an Amide Bioisostere: Discovery of 1,2,4-Triazole-containing Pyrazolo[1,5-a]pyrimidine Host CSNK2 Inhibitors for Combatting β-Coronavirus Replication” (J Med Chem, 2024).
